The text below walks through data of patent publication US9682995B2, “Amino-substituted isothiazoles” (BAYER PHARMA AKTIENGESELLSCHAFT, priority 2013, dated 2017).

SMILES strings stand for the structures.

Test [1] deals with human kinase Mps-1 (Homo sapiens (Human), UniProt P33981). In words: Mps-1 kinase assay (TR-FRET). The class given is biochemical. The note with it: 10 μM ATP; read-out: Mps1 avg (IC50 [mol/l]). The essentials: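 GST-tagged full-length human Mps-1 (~0.5 nM) preincubated 15 min with compound, then reacted 60 min at 22 °C with 10 μM ATP and 1 μM biotinylated peptide in Hepes pH 7.7 buffer. Phosphoproduct detected by TR-FRET (Eu anti-phospho-Ser/Thr, SA-XLent); 665/620 ratio normalised to no-inhibitor and no-enzyme controls.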
Chain of human kinase Mps-1 (P33981 whole entry): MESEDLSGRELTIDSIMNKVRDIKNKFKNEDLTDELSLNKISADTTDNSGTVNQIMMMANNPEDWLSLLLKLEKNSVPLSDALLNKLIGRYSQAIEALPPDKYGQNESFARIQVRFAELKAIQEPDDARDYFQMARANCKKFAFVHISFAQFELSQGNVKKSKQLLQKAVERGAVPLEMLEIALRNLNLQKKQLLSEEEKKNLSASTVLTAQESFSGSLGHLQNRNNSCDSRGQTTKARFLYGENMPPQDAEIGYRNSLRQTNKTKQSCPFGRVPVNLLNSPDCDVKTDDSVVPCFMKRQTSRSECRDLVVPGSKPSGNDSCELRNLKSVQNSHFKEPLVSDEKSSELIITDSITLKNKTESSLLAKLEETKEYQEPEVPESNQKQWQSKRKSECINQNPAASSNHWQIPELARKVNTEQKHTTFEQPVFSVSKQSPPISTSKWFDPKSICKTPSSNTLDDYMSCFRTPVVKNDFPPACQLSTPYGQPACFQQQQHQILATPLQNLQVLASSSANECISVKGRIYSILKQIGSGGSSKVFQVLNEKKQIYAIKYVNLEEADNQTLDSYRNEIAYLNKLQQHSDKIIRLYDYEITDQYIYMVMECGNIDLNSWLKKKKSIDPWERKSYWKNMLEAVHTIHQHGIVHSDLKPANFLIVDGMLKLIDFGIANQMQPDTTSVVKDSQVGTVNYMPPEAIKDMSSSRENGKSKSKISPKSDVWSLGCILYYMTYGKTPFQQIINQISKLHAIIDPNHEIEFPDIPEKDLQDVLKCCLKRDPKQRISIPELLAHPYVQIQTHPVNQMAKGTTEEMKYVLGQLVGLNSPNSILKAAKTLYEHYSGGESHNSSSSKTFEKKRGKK
Background: TR-FRET usually uses a lanthanide donor and a delayed reading to cut background.

Test [2] has as its system spindle assembly checkpoint. In words: SAC-Formation - Paclitaxel-Induced Assay. It counts as cell-based. The note with it: Homo sapiens; HeLa cells, paclitaxel 0.05 μM, 24 h, phosphorylated histone H3 on serine 10. The essentials:
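HeLa cells were plated overnight, then given paclitaxel (0.05 μM final) plus compound (0.005-20 μM, 0.5% DMSO) for 24 h at 37° C. Fixed cells were stained for phospho-histone H3 Ser10 and with Hoechst, then imaged to give mitotic index. A fall in mitotic cells marks SAC breakthrough, and values were fit with a four-parameter Hill equation.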

In the case of `Cc1nsc(Nc2cc(C#N)ccn2)c1C(=O)Nc1ccc(Cl)c(F)c1` [Example 54, N-(4-Chloro-3-fluorophenyl)-5-[(4-cyanopyridin-2-yl)amino]-3-methyl-1,2-thiazole-4-carboxamide], the IC50 in test [1] is > 20 µM; in test [2], 0.03 µM.

As to `CCOC(=O)c1cnn2ccc(Nc3snc(C)c3C(=O)Nc3ccc(F)c(F)c3)nc12` [Example 55, Ethyl 5-({4-[(3,4-difluorophenyl)carbamoyl]-3-methyl-1,2-thiazol-5-yl}amino)-pyrazolo[1,5-a]pyrimidine-3-carboxylate], the IC50 is > 20 µM in test [1] and 0.46 µM in test [2].

Turning to `Cc1nsc(Nc2cnccn2)c1C(=O)Nc1ccc(Cl)c(F)c1` [Example 56, N-(4-Chloro-3-fluorophenyl)-3-methyl-5-(pyrazin-2-ylamino)-1,2-thiazole-4-carboxamide], the IC50 in test [1] is > 20 µM; in test [2] it was 0.25 µM.

`Cc1nsc(Nc2ccn3nccc3n2)c1C(=O)Nc1ccc(F)c(F)c1` [Example 57, N-(3,4-Difluorophenyl)-3-methyl-5-(pyrazolo[1,5-a]pyrimidin-5-ylamino)-1,2-thiazole-4-carboxamide]: the values for the IC50 in test [1] and in test [2] were 18 µM and 0.39 µM, respectively.

In the case of `CCOC(=O)c1cnc(Nc2snc(C)c2C(=O)Nc2ccc(F)c(F)c2)o1` [Example 96, Ethyl 2-({4-[(3,4-difluorophenyl)carbamoyl]-3-methyl-1,2-thiazol-5-yl}amino)-1,3-oxazole-5-carboxylate], the IC50 is > 20 µM in test [1] and 1.4 µM in test [2].

On to `COC(=O)c1cnc(Nc2snc(C)c2C(=O)Nc2ccc(F)c(F)c2)o1` [Example 97, Methyl 2-({4-[(3,4-difluoro-phenyl)carbamoyl]-3-methyl-1,2-thiazol-5-yl}amino)-1,3-oxazole-5-carboxylate], for which the results for the IC50 in test [1] and in test [2] were > 20 µM and 8.1 µM, respectively.

`CCOC(=O)c1coc(Nc2snc(C)c2C(=O)Nc2ccc(F)c(F)c2)n1` [Example 98, Ethyl 2-({4-[(3,4-difluoro-phenyl)carbamoyl]-3-methyl-1,2-thiazol-5-yl}amino)-1,3-oxazole-4-carboxylate]: the IC50 came to 18 µM in test [1] and 7.9 µM in test [2].

In the case of `CCNC(=O)c1csc(Nc2snc(C)c2C(=O)Nc2ccc(F)c(F)c2)n1` [Example 99, N-(3,4-Difluorophenyl)-5-{[4-(ethylcarbamoyl)-1,3-thiazol-2-yl]amino}-3-methyl-1,2-thiazole-4-carboxamide], the IC50 is > 20 µM in test [1] and 0.3 µM in test [2].

Take `CCOC(=O)c1coc(Nc2snc(C)c2C(=O)Nc2ccc(OC)nc2)n1` [Example 100, Ethyl 2-({4-[(6-methoxypyridin-3-yl)carbamoyl]-3 methyl-1,2-thiazol-5-yl}amino)-1,3-oxazole-4-carboxylate]: the IC50 is > 20 µM in test [1] and 3.4 µM in test [2].

As for `COC(=O)c1cncc(Nc2snc(C)c2C(=O)Nc2ccc(OC)nc2)n1` [Example 101, Methyl 6-({4-[(6-methoxypyridin-3-yl)carbamoyl]-3-methyl-1,2-thiazol-5-yl}amino)pyrazine-2-carboxylate], the IC50 in test [1] is > 20 µM; in test [2], 1.5 µM.

As to `Cc1nsc(Nc2nc3c(C(F)(F)F)cccc3s2)c1C(=O)Nc1ccc(Cl)c(Cl)c1` [Example 102, N-(3,4-Dichlorophenyl)-3-methyl-5-{[4-(trifluoromethyl)-1,3-benzothiazol-2-yl]amino}-1,2-thiazole-4-carboxamide], the IC50 in test [1] is > 20 µM; in test [2] it was 0.79 µM.

On to `Cc1nsc(Nc2nc3c(C(F)(F)F)ccnc3s2)c1C(=O)Nc1ccc(Cl)c(F)c1` [Example 103, N-(4-Chloro-3-fluorophenyl)-3-methyl-5-{[7-(trifluoromethyl)[1,3]thiazolo[5,4-b]pyridin-2-yl]amino}-1,2-thiazole-4-carboxamide], for which the IC50 was > 20 µM in test [1] and 0.82 µM in test [2].

Consider `Cc1nsc(Nc2cncc(C(=O)N(C)C)n2)c1C(=O)Nc1ccc(F)c(F)c1` [Example 104, 6-({4-[(3,4-Difluorophenyl)-carbamoyl]-3-methyl-1,2-thiazol-5-yl}amino)-N,N-dimethyl-pyrazine-2-carboxamide], for which the IC50 is > 20 µM in test [1] and 7.5 µM in test [2].

`Cc1nsc(Nc2cncc(N(C)C)n2)c1C(=O)Nc1ccc(F)c(F)c1` [Example 105, N-(3,4-Difluorophenyl)-5-{[6-(dimethylamino)pyrazin-2-yl]amino}-3-methyl-1,2-thiazole-4-carboxamide]: the IC50 in test [1] was 12 µM; in test [2] it was 20 µM.

As for `Cc1nsc(Nc2cncc(C(=O)N3CCCC3)n2)c1C(=O)Nc1ccc(F)c(F)c1` [Example 106, N-(3,4-Difluorophenyl)-3-methyl-5-{[6-(pyrrolidin-1-ylcarbonyl)pyrazin-2-yl]amino}-1,2-thiazole-4-carboxamide], the results for the IC50 in test [1] and in test [2] were > 20 µM and 0.32 µM, respectively.

`Cc1nsc(Nc2cncc(C(=O)N3CCOCC3)n2)c1C(=O)Nc1ccc(F)c(F)c1` [Example 107, N-(3,4-Difluorophenyl)-3-methyl-5-{[6-(morpholin-4-ylcarbonyl)pyrazin-2-yl]amino}-1,2-thiazole-4-carboxamide]: the IC50 in test [1] was > 20 µM; in test [2] it was 0.21 µM.

As for `CNC(=O)c1ccnc(Nc2snc(C)c2C(=O)Nc2ccc(F)c(F)c2)c1` [Example 108, 2-({4-[(3,4-Difluorophenyl)-carbamoyl]-3-methyl-1,2-thiazol-5-yl}amino)-N-methyliso-nicotinamide], the IC50 was > 20 µM in test [1] and 20 µM in test [2].

For the compound `Cc1nsc(Nc2cnc(C(=O)N(C)C)cn2)c1C(=O)Nc1ccc(F)c(F)c1` [Example 109, 5-({4-[(3,4-Difluorophenyl)carbamoyl]-3-methyl-1,2-thiazol-5-yl}amino)-N,N-dimethylpyrazine-2-carboxamide], the IC50 was > 20 µM in test [1] and 1.9 µM in test [2].

Consider `Cc1nsc(Nc2ccc(C#N)cn2)c1C(=O)Nc1ccc(OC(C)C)nc1` [Example 110, 5-[(5-Cyanopyridin-2-yl)amino]-N-(6-isopropoxyridin-3-yl)-3-methyl-1,2-thiazole-4-carboxamide], for which the IC50 in test [1] was > 20 µM; in test [2], 3.8 µM.

As to `Cc1nsc(Nc2cnc3ccccc3n2)c1C(=O)Nc1ccc(Oc2ccccc2)nc1` [Example 112, 3-Methyl-N-(6-phenoxypyridin-3-yl)-5-(quinoxalin-2-ylamino)-1,2-thiazole-4-carboxamide], the IC50 is > 20 µM in test [1] and 0.057 µM in test [2].

As to `Cc1nsc(Nc2cnc3ccccc3n2)c1C(=O)Nc1ccc(Oc2ccc(F)cc2F)nc1` [Example 113, N-[6-(2,4-Difluorophenoxy)pyridin-3-yl]-3-methyl-5-(quinoxalin-2-ylamino)-1,2-thiazole-4-carboxamide], the results for the IC50 in test [1] and in test [2] were > 20 µM and 1 µM, respectively.

With `Cc1nsc(Nc2cnc3ccccc3n2)c1C(=O)Nc1ccc(OC2CCCCC2)nc1` [Example 115, N-[6-(Cyclohexyloxy)pyridin-3-yl]-3-methyl-5-(quinoxalin-2-ylamino)-1,2-thiazole-4-carboxamide], the IC50 was > 20 µM in test [1] and 0.12 µM in test [2].

In the case of `COc1ccc(Oc2ccc(NC(=O)c3c(C)nsc3Nc3cnc4ccccc4n3)cn2)cc1` [Example 116, N-[6-(4-Methoxyphenoxy)pyridin-3-yl]-3-methyl-5-(quinoxaline-2-ylamino)-1,2-thiazole-4-carboxamide], the IC50 in test [1] is 3.6 µM; in test [2], 4.8 µM.

`COc1ccc(Oc2ccc(NC(=O)c3c(C)nsc3Nc3cc(C#N)ccn3)cn2)cc1` [Example 117, 5-[(4-Cyanopyridin-2-yl)amino]-N-[6-(4-methoxyphenoxy)pyridin-3-yl]-3-methyl-1,2-thiazole-4-carboxamide]: the figures for the IC50 in test [1] and in test [2] were > 20 µM and 2 µM, respectively.

On to `Cc1nsc(Nc2cc(C#N)ccn2)c1C(=O)Nc1ccc(OC2CCCCC2)nc1` [Example 118, 5-[(4-Cyanopyridin-2-yl)amino]-N-[6-(cyclohexyloxy)pyridin-3-yl]-3-methyl-1,2-thiazole-4-carboxamide], for which the values for the IC50 in test [1] and in test [2] were > 20 µM and 0.056 µM, respectively.

As to `CCOc1ccc(NC(=O)c2c(C)nsc2Nc2cnc3ccccc3n2)cn1` [Example 119, N-(6-Ethoxypyridin-3-yl)-3-methyl-5-(quinoxalin-2-ylamino)-1,2-thiazole-4-carboxamide], the IC50 in test [1] is > 20 µM; in test [2] it was 2.5 µM.

With `COc1ncc(NC(=O)c2c(C)nsc2Nc2ccc(C#N)cn2)cc1C` [Example 120, 5-[(5-Cyanopyridin-2-yl)amino]-N-(6-methoxy-5-methylpyridin-3-yl)-3-methyl-1,2-thiazole-4-carboxamide], the IC50 in test [1] was > 20 µM; in test [2], 1.2 µM.

As for `COc1ncc(NC(=O)c2c(C)nsc2Nc2cnc3ccccc3n2)cc1C` [Example 121, N-(6-Methoxy-5-methylpyridin-3-yl)-3-methyl-5-(quinoxalin-2-ylamino)-1,2-thiazole-4-carboxamide], the IC50 in test [1] was > 20 µM; in test [2], 0.75 µM.

Consider `Cc1nsc(Nc2cnc3ccccc3n2)c1C(=O)Nc1ccc(OC(C)C)nc1` [Example 122, N-(6-Isopropoxypyridin-3-yl)-3-methyl-5-(quinoxalin-2-ylamino)-1,2-thiazole-4-carboxamide], for which the IC50 was > 20 µM in test [1] and 0.88 µM in test [2].
